# System: Donor 3 COP T-Cell Lines
# Test: ATP proliferation assay (CellTiter Glo), Donor 3 COP T-cell lines, incl. reactivity to non-canonical GA peptides
# Format: cell-based, human
# Conditions: for Reactivity (proliferation), Mean: Day 54 of culture
substance,measurement,setting,value
glatiramer acetate [GMA],response in ATP proliferation assay,"165-D2C, 165-C7C, 165-C4C, Day 39, three concentrations (Table 24)",responded comparably
same,"Reactivity (proliferation), Mean","T-cell line 165-B6C, 1 μg/mL antigen, No Antigen 2358",3939 RLU
same,"Mean, ATP proliferation assay","T-cell line 165-B6C, 1 μg/mL, Day 46, after 3 days",9925 RLU
same,"Reactivity (proliferation), Mean","T-cell line 165-B6C, 3 μg/mL antigen, No Antigen 2358",19344 RLU
same,"Mean, ATP proliferation assay","T-cell line 165-B6C, 3 μg/mL, Day 46, after 3 days",38105 RLU
same,"Reactivity (proliferation), Mean","T-cell line 165-B6C, 10 μg/mL antigen, No Antigen 2358",29012 RLU
same,"Mean, ATP proliferation assay","T-cell line 165-B6C, 10 μg/mL, Day 46, after 3 days",25839 RLU
same,"Reactivity (proliferation), Mean","T-cell line 165-B6C, 100 μg/mL antigen, No Antigen 2358",9856 RLU
same,"Mean, ATP proliferation assay","T-cell line 165-B6C, Day 32, 10 μg/mL",1058 RLU
same,"Reactivity (proliferation), Mean","T-cell line 165-B10C, 1 μg/mL antigen, No Antigen 2234",1942 RLU
same,"Mean, ATP proliferation assay","T-cell line 165-B10C, 1 μg/mL, Day 46, after 3 days",5592 RLU
same,"Reactivity (proliferation), Mean","T-cell line 165-B10C, 3 μg/mL antigen, No Antigen 2234",2658 RLU
same,"Mean, ATP proliferation assay","T-cell line 165-B10C, 3 μg/mL, Day 46, after 3 days",13012 RLU
same,"Reactivity (proliferation), Mean","T-cell line 165-B10C, 10 μg/mL antigen, No Antigen 2234",5854 RLU
same,"Mean, ATP proliferation assay","T-cell line 165-B10C, 10 μg/mL, Day 46, after 3 days",19866 RLU
same,"Reactivity (proliferation), Mean","T-cell line 165-B10C, 100 μg/mL antigen, No Antigen 2234",6380 RLU
same,"Proliferation (luminescent ATP assay), Mean","T-cell line 165-C4C, 1 μg/mL antigen, Day 66 of culture, 0 μg/mL 1881",2668
same,"Mean, ATP proliferation assay","T-cell line 165-C4C, 1 μg/mL, Day 39",9367
same,"Proliferation (luminescent ATP assay), Mean","T-cell line 165-C4C, 3 μg/mL antigen, Day 66 of culture, 0 μg/mL 1881",16108
same,"Mean, ATP proliferation assay","T-cell line 165-C4C, 3 μg/mL, Day 39",26279
same,"Proliferation (luminescent ATP assay), Mean","T-cell line 165-C4C, 10 μg/mL antigen, Day 66 of culture, 0 μg/mL 1881",88509
same,"Mean, ATP proliferation assay","T-cell line 165-C4C, 10 μg/mL, Day 39",31014
same,"Mean, ATP proliferation assay","T-cell line 165-C7C, 1 μg/mL, Day 39",3307
same,"Proliferation (luminescent ATP assay), Mean","T-cell line 165-C7C, 1.25 μg/mL antigen, autologous B-LCL",610 RLU
same,"Proliferation (luminescent ATP assay), Mean","T-cell line 165-C7C, 2.5 μg/mL antigen, autologous B-LCL",2699 RLU
same,"Mean, ATP proliferation assay","T-cell line 165-C7C, 3 μg/mL, Day 39",12832
same,"Proliferation (luminescent ATP assay), Mean","T-cell line 165-C7C, 5 μg/mL antigen, autologous B-LCL",22588 RLU
same,"Proliferation (luminescent ATP assay), Mean","T-cell line 165-C7C, 10 μg/mL antigen, autologous B-LCL",24029 RLU
same,"Mean, ATP proliferation assay","T-cell line 165-C7C, 10 μg/mL, Day 39",42739
same,"Mean, ATP proliferation assay","T-cell line 165-D2C, 1 μg/mL, Day 39",3881
same,"Mean, ATP proliferation assay","T-cell line 165-D2C, 3 μg/mL, Day 39",7503
same,"Mean, ATP proliferation assay","T-cell line 165-D2C, 10 μg/mL, Day 39",13253
same,"Reactivity (proliferation), Mean","T-cell line 165-D3C, 1 μg/mL antigen, No Antigen 8319",24131 RLU
same,"Mean, ATP proliferation assay","T-cell line 165-D3C, 1 μg/mL, Day 46, after 3 days",61535 RLU
same,"Reactivity (proliferation), Mean","T-cell line 165-D3C, 3 μg/mL antigen, No Antigen 8319",58814 RLU
same,"Mean, ATP proliferation assay","T-cell line 165-D3C, 3 μg/mL, Day 46, after 3 days",80112 RLU
same,"Reactivity (proliferation), Mean","T-cell line 165-D3C, 10 μg/mL antigen, No Antigen 8319",57024 RLU
same,"Mean, ATP proliferation assay","T-cell line 165-D3C, 10 μg/mL, Day 46, after 3 days",107772 RLU
same,"Reactivity (proliferation), Mean","T-cell line 165-D3C, 100 μg/mL antigen, No Antigen 8319",14205 RLU
same,"Mean, ATP proliferation assay","T-cell line 165-D3C, Day 32, 10 μg/mL",3436 RLU
same,"Reactivity (proliferation), Mean","T-cell line 165-D11C, 1 μg/mL antigen, No Antigen 4571",3636 RLU
same,"Mean, ATP proliferation assay","T-cell line 165-D11C, 1 μg/mL, Day 46, after 3 days",15655 RLU
same,"Reactivity (proliferation), Mean","T-cell line 165-D11C, 3 μg/mL antigen, No Antigen 4571",6578 RLU
same,"Mean, ATP proliferation assay","T-cell line 165-D11C, 3 μg/mL, Day 46, after 3 days",17777 RLU
same,"Reactivity (proliferation), Mean","T-cell line 165-D11C, 10 μg/mL antigen, No Antigen 4571",16338 RLU
same,"Mean, ATP proliferation assay","T-cell line 165-D11C, 10 μg/mL, Day 46, after 3 days",56609 RLU
same,"Reactivity (proliferation), Mean","T-cell line 165-D11C, 100 μg/mL antigen, No Antigen 4571",14560 RLU
same,"Mean, ATP proliferation assay","T-cell line 165-D11C, Day 32, 10 μg/mL",416 RLU
same,"Reactivity (proliferation), Mean","T-cell line 165-E3C, 1 μg/mL antigen, No Antigen 2797",2954 RLU
same,"Mean, ATP proliferation assay","T-cell line 165-E3C, 1 μg/mL, Day 46, after 3 days",10662 RLU

# Source: US9995734B2, “Human T cell line assay for evaluating the immunologic identity of glatiramer acetate preparations” (Mylan Inc., priority 2013, dated 2018)
